From ChEMBL document CHEMBL1150472, “Synthesis and immunoregulating activity of vitamin D analogues bearing pregnane side chains” (Bioorg Med Chem Lett, 1992)

Tested on: Rattus norvegicus
Experiment: Compound was tested in ratsdeficient in vitamin D at a dose of 125 ug/kg i.v.; NE denotes no effect was observed on bone calcium mobilization (BCM) and intestinal calcium absorption (ICA)
Format: functional, organism-based

For `C=C1/C(=C\C=C2/CCC[C@@]3(C)C2CC[C@@H]3C(C)=O)CC(O)C[C@@H]1O` (stereo partly specified), which Activity is on record?
The Activity was “No effect”.
